Results taken from patent US20260176265A1 (Cancer Research Technology Limited, priority 2022, published 2026).

Assays:
[1] = biological target: T1, Phospho-EGFR (Tyr1068) in A431 cells (Homo sapiens, UniProt P00533); assay: HTRF pEGFR/total EGFR assay in A431 cells (EGF stimulated); assay type: cell-based; conditions: compound 2.5 hours then 100 ng/ml EGF 30 mins, ratio pEGFR/total EGFR
T1 construct: endogenous in cells; host or cells: A431
Method in brief: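 A431 cells pretreated with compounds 2.5 h (0.1% DMSO), then stimulated with 100 ng/ml EGF for 30 min. Lysates assayed by HTRF for phospho-EGFR (Tyr1068) and total EGFR, read at 665/620 nm. Values are pEGFR/total EGFR ratio as percentage of 0uM control.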

[2] = biological target: T2, Phospho-EGFR (Tyr1068) in H1975 cells (Homo sapiens, UniProt P00533, L858R/T790M); assay: HTRF pEGFR/total EGFR assay in H1975 cells; assay type: cell-based; conditions: compound 3 hours, ratio pEGFR/total EGFR
T2 construct: host or cells: H1975
Method in brief: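 H1975 cells (EGFR L858R/T790M) adhered 24 h, then compound-treated for 3 h in duplicate, 0.1% DMSO final. Lysates read by HTRF at 665/620 nm for phospho-Tyr1068 and total EGFR. Value is pEGFR/total EGFR ratio as % of 0 uM control.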

[3] = biological target: T3, Phospho-EGFR (Tyr1068) in H1975 C797S cells (Homo sapiens, UniProt P00533, C797S/L858R/T790M); assay: HTRF pEGFR/total EGFR assay in H1975 C797S cells; assay type: cell-based; conditions: H1975 C797S cells (CRISPR), compound 3 hours, ratio pEGFR/total EGFR
T3 construct: endogenous in cells; host or cells: H1975 C797S (CRISPR-edited in house from ATCC CRL-5908)
Method in brief: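 H1975 cells carrying CRISPR-engineered EGFR C797S (with L858R/T790M) were exposed to compounds for 3 h at 0.1% DMSO, in duplicate. Lysates were read with HTRF kits for pEGFR Tyr1068 and total EGFR at 665/620 nm. Values are the pEGFR/total EGFR ratio as percent of the 0 uM control.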

[4] = biological target: CtermHisTag-mEGFR Triple Mutant - C797S, L858R, T790M (Homo sapiens, UniProt P00533, C797S/L858R/T790M); assay: TR-FRET probe displacement assay, EGFR triple mutant; assay type: binding; conditions: T790M 1.25 nM, probe 100 nM, 30 mins room temperature
Method in brief: (§1)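 Ten-point compound series, 100000 to 3 nM final, tested against His-tagged EGFR (wild type or C797S/L858R/T790M) for probe displacement. TR-FRET read at Ex337 nm, Em490/520 nm; run in technical replicate, biological duplicate.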

[5] = biological target: CtermHisTag-mEGFR Wild type (Homo sapiens, UniProt P00533); assay: TR-FRET probe displacement assay, EGFR wild type; assay type: binding; conditions: EGFR wild type 1.25 nM, probe 100 nM, 30 mins room temperature
Method in brief: as §1

Sequence of CtermHisTag-mEGFR Triple Mutant - C797S, L858R, T790M (P00533 25-1210 T790M/C797S/L858R): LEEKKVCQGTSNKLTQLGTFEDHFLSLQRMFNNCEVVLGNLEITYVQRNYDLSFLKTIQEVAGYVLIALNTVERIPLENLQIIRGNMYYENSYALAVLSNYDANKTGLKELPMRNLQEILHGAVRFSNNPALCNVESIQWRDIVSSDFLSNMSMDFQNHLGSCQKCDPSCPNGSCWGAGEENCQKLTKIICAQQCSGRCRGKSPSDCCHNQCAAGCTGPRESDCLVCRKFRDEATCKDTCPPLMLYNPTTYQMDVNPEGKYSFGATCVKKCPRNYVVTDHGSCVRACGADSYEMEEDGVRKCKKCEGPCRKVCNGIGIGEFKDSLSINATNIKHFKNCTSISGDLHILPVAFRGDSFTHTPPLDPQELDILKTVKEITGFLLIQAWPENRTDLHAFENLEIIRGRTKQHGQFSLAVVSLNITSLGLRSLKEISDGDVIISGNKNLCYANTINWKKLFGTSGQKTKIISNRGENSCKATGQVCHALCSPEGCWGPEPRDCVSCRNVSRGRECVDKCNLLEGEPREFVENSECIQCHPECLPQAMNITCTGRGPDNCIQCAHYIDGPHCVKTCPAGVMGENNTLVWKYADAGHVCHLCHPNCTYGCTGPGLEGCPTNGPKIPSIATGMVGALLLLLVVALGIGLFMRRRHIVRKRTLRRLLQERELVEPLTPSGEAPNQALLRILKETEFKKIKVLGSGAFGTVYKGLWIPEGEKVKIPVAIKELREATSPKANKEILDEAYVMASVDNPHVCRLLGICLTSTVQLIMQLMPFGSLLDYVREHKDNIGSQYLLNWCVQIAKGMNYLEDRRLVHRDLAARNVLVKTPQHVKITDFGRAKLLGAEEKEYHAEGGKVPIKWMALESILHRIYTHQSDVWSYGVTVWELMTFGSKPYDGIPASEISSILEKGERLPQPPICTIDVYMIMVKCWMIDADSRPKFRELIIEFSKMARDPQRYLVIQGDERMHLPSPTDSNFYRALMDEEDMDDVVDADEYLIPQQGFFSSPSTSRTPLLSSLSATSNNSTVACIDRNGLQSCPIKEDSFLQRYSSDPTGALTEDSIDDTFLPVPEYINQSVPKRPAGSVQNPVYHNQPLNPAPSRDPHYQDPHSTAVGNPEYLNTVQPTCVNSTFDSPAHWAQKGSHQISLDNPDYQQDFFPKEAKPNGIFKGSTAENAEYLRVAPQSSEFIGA
T3 sequence (P00533 25-1210 T790M/C797S/L858R): as above
Sequence of CtermHisTag-mEGFR Wild type (P00533 25-1210): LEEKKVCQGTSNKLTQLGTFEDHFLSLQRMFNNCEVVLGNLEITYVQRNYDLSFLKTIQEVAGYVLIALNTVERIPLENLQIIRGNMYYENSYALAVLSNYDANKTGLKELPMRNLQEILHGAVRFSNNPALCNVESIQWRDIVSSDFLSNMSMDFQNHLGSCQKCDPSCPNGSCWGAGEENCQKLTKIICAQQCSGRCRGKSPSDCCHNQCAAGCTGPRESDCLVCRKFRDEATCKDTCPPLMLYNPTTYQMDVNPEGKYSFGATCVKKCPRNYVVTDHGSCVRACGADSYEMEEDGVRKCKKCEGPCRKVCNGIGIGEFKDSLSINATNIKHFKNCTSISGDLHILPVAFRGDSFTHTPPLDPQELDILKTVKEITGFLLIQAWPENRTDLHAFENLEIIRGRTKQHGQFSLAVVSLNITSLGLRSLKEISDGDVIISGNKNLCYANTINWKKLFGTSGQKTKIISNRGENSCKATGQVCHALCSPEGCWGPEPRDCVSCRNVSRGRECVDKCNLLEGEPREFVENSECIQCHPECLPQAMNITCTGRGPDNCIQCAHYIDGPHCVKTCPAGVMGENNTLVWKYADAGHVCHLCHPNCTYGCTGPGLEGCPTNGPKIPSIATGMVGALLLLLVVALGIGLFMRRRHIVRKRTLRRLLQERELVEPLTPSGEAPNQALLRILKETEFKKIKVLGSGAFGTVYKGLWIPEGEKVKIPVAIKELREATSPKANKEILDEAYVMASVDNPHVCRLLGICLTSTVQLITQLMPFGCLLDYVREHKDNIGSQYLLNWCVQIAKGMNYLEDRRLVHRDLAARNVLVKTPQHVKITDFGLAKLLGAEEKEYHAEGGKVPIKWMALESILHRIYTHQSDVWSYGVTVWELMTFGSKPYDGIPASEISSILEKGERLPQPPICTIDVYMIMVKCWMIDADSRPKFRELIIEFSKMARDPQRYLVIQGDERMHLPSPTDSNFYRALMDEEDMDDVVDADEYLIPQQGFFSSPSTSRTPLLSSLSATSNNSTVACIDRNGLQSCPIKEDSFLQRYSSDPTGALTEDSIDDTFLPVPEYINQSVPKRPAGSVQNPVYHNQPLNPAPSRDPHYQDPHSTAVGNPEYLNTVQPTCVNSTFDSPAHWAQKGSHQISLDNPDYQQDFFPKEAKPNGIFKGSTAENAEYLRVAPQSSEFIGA
T1 sequence (P00533 25-1210): as above

Row | Compound | IC50 [1] | IC50 [2] | IC50 [3] | IC50 [4] | IC50 [5]
1 | C#Cc1cc(N2C(=O)N(C)CC23CCCC3)nc2nc(Nc3ccc(N4CCOCC4)cc3)ncc12 [Example 103, 1-(5-Ethynyl-2-{[4-(morpholin-4-yl)phenyl]amino}pyrido[2,3-d]pyrimidin-7-yl)-3-methyl-1,3-diazaspiro[4.4]nonan-2-one] | 1000 to 3000 nM | < 500 nM | < 500 nM | 20 to 100 nM | < 1000 nM
2 | C#Cc1cc(NC(=O)NC2CCCC2)nc2nc(Nc3ccc(N(C)C(=O)CN(C)C)cc3)ncc12 [Example 83] | > 3000 nM | < 500 nM | < 500 nM | < 20 nM | < 1000 nM
3 | C#Cc1cc(OC)nc2nc(Nc3ccc(N4CCN(C)CC4)c(NC4CCC4)c3)ncc12 [Example 8, N^3-cyclobutyl-N^1-{5-ethynyl-7-methoxypyrido[2,3-d]pyrimidin-2-yl}-4-(4-methylpiperazin-1-yl)benzene-1,3-diamine] | > 3000 nM | 1000 to 3000 nM | > 3000 nM | 20 to 100 nM | 1000 to 10000 nM
4 | C#Cc1cc(N2C(=O)N(C)CC23CCCC3)nc2nc(Nc3ccc(S(C)(=O)=O)cc3)ncc12 [Example 108, 1-{5-Ethynyl-2-[(4-methanesulfonylphenyl)amino]pyrido [2,3-d]pyrimidin-7-yl}-3-methyl-1,3-diazaspiro [4.4]nonan-2-one] | 1000 to 3000 nM | > 3000 nM | > 3000 nM | 20 to 100 nM | > 10000 nM
5 | C#Cc1cc(OC2CC2)nc2nc(Nc3ccc(N4CCN(C)CC4)cc3)ncc12 [Example 16, 7-cyclopropoxy-5-ethynyl-N-[4-(4-methylpiperazin-1-yl)phenyl]pyrido[2,3-d]pyrimidin-2-amine] | > 3000 nM | 1000 to 3000 nM | > 3000 nM | 100 to 1000 nM | > 10000 nM
6 | C#Cc1cc(NC(=O)NC2(C)CCOC2)nc2nc(Nc3ccc(N4CCN(C)CC4)cc3)ncc12 (stereo not shown) [Example 62] | 500 to 1000 nM | < 500 nM | < 500 nM | < 20 nM | < 1000 nM
7 | C#Cc1cc(N2C(=O)NCC23CCCC3)nc2nc(Nc3ccc(N4CCN(C5COC5)CC4)cc3)ncc12 [Example 92, 1-[5-Ethynyl-2-({4-[4-(oxetan-3-yl)piperazin-1-yl]phenyl}amino)pyrido[2,3-d]pyrimidin-7-yl]-1,3-diazaspiro[4.4]nonan-2-one] | 1000 to 3000 nM | 500 to 1000 nM | 1000 to 3000 nM | < 20 nM | < 1000 nM
8 | C#Cc1cc(NS(C)(=O)=O)nc2c1=CNC(Nc1ccc(N(C)CCN(C)C)cc1)N=2 (stereo not shown) [Example 33] | > 3000 nM | > 3000 nM | > 3000 nM | 20 to 100 nM | > 10000 nM
9 | C#Cc1cc(N2C(=O)N(C)CC2C(C)C)nc2nc(Nc3ccc(N4CCN(C)CC4)cc3)ncc12 (stereo not shown) [Example 102, 3-(5-Ethynyl-2-{[4-(4-methylpiperazin-1-yl)phenyl]amino}pyrido[2,3-d]pyrimidin-7-yl)-4-isopropyl-1-methylmidazolidin-2-one] | > 3000 nM | > 3000 nM | > 3000 nM | < 20 nM | 1000 to 10000 nM
10 | C#Cc1cc(NC(=O)NC2CCCC2)nc2nc(Nc3ccc(N4CCN(C5COC5)CC4)cc3)ncc12 [Example 76, 3-Cyclopentyl-1-[5-ethynyl-2-({4-[4-(oxetan-3-yl)piperazin-1-yl]phenyl}amino)pyrido[2,3-d]pyrimidin-7-yl]urea] | < 500 nM | < 500 nM | < 500 nM | < 20 nM | < 1000 nM
11 | C#Cc1cc(NC(=O)Cc2ccccc2)nc2nc(Nc3ccc(N4CCN(C)CC4)cc3)ncc12 [Example 30, N-(5-ethynyl-2-{[4-(4-methylpiperazin-1-yl)phenyl]amino}pyrido[2,3-d]pyrimidin-7-yl)-2-phenylacetamide] | > 3000 nM | 1000 to 3000 nM | 1000 to 3000 nM | < 20 nM | 1000 to 10000 nM
12 | C#Cc1cc(NC(=O)NC2CN(C(C)=O)C2)nc2nc(Nc3ccc(N4CCN(C)CC4)cc3)ncc12 [Example 54] | > 3000 nM | > 3000 nM | > 3000 nM | < 20 nM | 1000 to 10000 nM
13 | C#Cc1cc(N2C(=O)N(C)CC23CCCC3)nc2nc(Nc3ccc(S(=O)(=O)N(C)C)cc3)ncc12 [Example 109, 4-[(5-Ethynyl-7-{3-methyl-2-oxo-1,3-diazaspiro[4.4]nonan-1-yl}pyrido[2,3-d]pyrimidin-2-yl)amino]-N,N-dimethylbenzenesulfonamide] | 1000 to 3000 nM | > 3000 nM | > 3000 nM | 100 to 1000 nM | > 10000 nM
14 | C#Cc1cc(N2C(=O)N(C)CC23CCCC3)nc2nc(Nc3ccc(N(C)C(=O)CN(C)C)cc3)ncc12 [Example 106, 2-(Dimethylamino)-N-{4-[(5-ethynyl-7-{3-methyl-2-oxo-1,3-diazaspiro[4.4]nonan-1-yl}pyrido[2,3-d]pyrimidin-2-yl)amino}phenyl]-N-methylacetamide] | 1000 to 3000 nM | > 3000 nM | 1000 to 3000 nM | 100 to 1000 nM | 1000 to 10000 nM
15 | C#Cc1cc(N2C(=O)OC[C@@H]2C(C)C)nc2nc(Nc3ccc(N4CCN(C)CC4)cc3)ncc12 [Example 70, (4S)-3-(5-ethynyl-2-{[4-(4-methylpiperazin-1-yl)phenyl]amino}pyrido[2,3-d]pyrimidin-7-yl)-4-isopropyl-1,3-oxazolidin-2-one] | 500 to 1000 nM | 500 to 1000 nM | > 3000 nM | < 20 nM | < 1000 nM
16 | C#Cc1cc(NC(=O)NCC2CCOC2)nc2nc(Nc3ccc(N4CCN(C)CC4)cc3)ncc12 (stereo not shown) [Example 51, 1-(5-ethynyl-2-{[4-(4-methylpiperazin-1-yl)phenyl]amino}pyrido[2,3-d]pyrimidin-7-yl)-3-(oxolan-3-ylmethyl)urea] | > 3000 nM | < 500 nM | < 500 nM | < 20 nM | < 1000 nM
17 | C#Cc1cc(Nc2ccccc2)nc2nc(Nc3ccc(N(C)CCN(C)C)cc3)ncc12 [Example 25, N^2-(4-{[2-(dimethylamino)ethyl](methyl)amino}phenyl)-5-ethynyl-N^7-phenylpyrido[2,3-d]pyrimidine-2,7-diamine] | > 3000 nM | > 3000 nM | > 3000 nM | 1000 to 50000 nM | > 10000 nM
18 | C#Cc1cc(OCc2ccccc2)nc2nc(Nc3ccc(N4CCN(C)CC4)cc3)ncc12 [Example 20, 7-(benzyloxy)-5-ethynyl-N-[4-(4-methylpiperazin-1-yl)phenyl]pyrido[2,3-d]pyrimidin-2-amine] | > 3000 nM | > 3000 nM | > 3000 nM | 100 to 1000 nM | > 10000 nM
19 | C#Cc1cc(NC(=O)NC2CCCC2)nc2nc(Nc3cccc4c3CN(C)C4)ncc12 [Example 117, 3-Cyclopentyl-1-{5-ethynyl-2-[(2-methyl-1,3-dihydroisoindol-4-yl)amino]pyrido[2,3-d]pyrimidin-7-yl}urea] | > 3000 nM | > 3000 nM | > 3000 nM | 100 to 1000 nM | 1000 to 10000 nM
20 | C#Cc1cc(OC)nc2nc(Nc3ccc(N4CCN(C)CC4)cc3)ncc12 [Example 3, 5-ethynyl-7-methoxy-N-(4-(4-methylDiDerazin-1-yl)phenyl)vrido[2,3-d]pyrimidin-2-amine] | > 3000 nM | 500 to 1000 nM | 1000 to 3000 nM | 100 to 1000 nM | > 10000 nM
21 | C#Cc1cc(NC(=O)NC2CCC2)nc2nc(Nc3ccc(N4CCN(C)CC4)cc3)ncc12 [Example 41, 3-cyclobutyl-1-(5-ethynyl-2-{[4-(4-methylpiperazin-1-yl)phenyl]amino}pyrido[2,3-d]pyrimidin-7-yl)urea] | 1000 to 3000 nM | < 500 nM | < 500 nM | < 20 nM | < 1000 nM
22 | C#Cc1cc(NC(=O)N2CCCC2)nc2nc(Nc3ccc(N4CCN(C)CC4)cc3)ncc12 [Example 56, N-(5-ethynyl-2-{[4-(4-methylpiperazin-1-yl)phenyl]amino}pyrido[2,3-d]pyrimidin-7-yl)pyrrolidine-1-carboxamide] | > 3000 nM | 1000 to 3000 nM | > 3000 nM | 100 to 1000 nM | > 10000 nM
23 | C#Cc1cc(NC(=O)N[C@@H]2CCN(C(C)=O)C2)nc2nc(Nc3ccc(N4CCN(C)CC4)cc3)ncc12 [Example 52] | > 3000 nM | > 3000 nM | > 3000 nM | 20 to 100 nM | 1000 to 10000 nM
